What all share (assay): NCI anticancer screen, dose series, 48 h
The subject of assay [1] is SK-MEL-28 melanoma.
The subject of assay [2] is CCRF-CEM leukemia.
The subject of assay [3] is SF-295 CNS.
Assay [4] has as its system HCT-15 colon.
The test system of assay [5] is SK-OV-3 ovarian.
In assay [6] the test system is LOX IMVI melanoma.
Assay [7] relates to SW-620 colon.
In assay [8] the test system is MCF7 breast.
Assay [9] relates to DU-145 prostate.

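Dose response: 5 concentrations. Exposure: 48 h. Format: 96-well plates. Endpoint: linear interpolation; highest concentration if not reached. GI50: concentration for 50% inhibition of growth. TGI marks complete inhibition of growth.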

Turning to `COc1ccc(OC)c(N2CC(N)C2=O)c1` (stereo not drawn), the TGI in assay [1], in assay [2], in assay [3], in [4], in assay [5] and in assay [6] was above 100 µM each time. Moreover, in assay [7], the TGI was above 100 µM.
With `O=c1ccc2ccccc2cc1[O-].O=c1ccc2ccccc2cc1[O-].[O]=[U+2]=[O]`, the GI50 in assay [1] was 15.3 µM; in assay [2], 6.14 µM; in assay [3], 17.7 µM; in assay [4], 17.6 µM; in assay [5], 30.2 µM; in assay [6] it was 14.1 µM. Moreover, the GI50 in assay [7] is 7.76 µM. In addition, the TGI in assay [1] is 47.5 µM; in assay [2] it was above 100 µM; in assay [3], 63.5 µM; in assay [4], above 100 µM; in assay [5], 71.2 µM; in [6] it was above 100 µM. Also, the TGI in assay [7] was found to be 39.7 µM.
Take `O=C1C=CC(=O)c2nc3c(cc21)CCC3`: the TGI is 40.4 µM in [1]; 25.6 µM in [2]; above 100 µM in [3]; 29.9 µM in assay [6]; 31.1 µM in assay [7].
Take `CC(=O)NNc1nc(C)c(C(=O)/C=C/c2ccc(NC(C)=O)cc2)s1`: the TGI in [1], in assay [2], in assay [3], in [4], in [5] and in [6] was above 100 µM each time. The same molecule came in with a TGI in assay [7] above 100 µM.
As to `CC(=O)OCCOCNC(=S)N/N=C(\C)c1cnccn1`, the TGI in [1], in assay [2], in [3], in [4], in assay [5] and in assay [6] was above 100 µM throughout. In assay [7], this molecule registered a TGI above 100 µM.
With `CCCCN(CCCC)C(=O)C(=O)C(C(=O)c1ccc(OC)cc1)c1ccc(OC)cc1` (stereo not drawn), the TGI in [1], in assay [2], in assay [3], in [4], in assay [5] and in assay [6] was above 100 µM in each case. This molecule also gave a TGI in assay [7] above 100 µM.
As to `CC(C)(C)c1cc2ccc(C(N)=O)cc2c(=O)[nH]1`, the TGI in assay [1], in assay [2], in [3], in [4], in assay [5] and in [6] was above 100 µM each time. For the same molecule, the TGI in assay [7] is above 100 µM.
Regarding `C=CC[C@H](C[C@H](C[C@H](C[C@H](C[C@H](C[C@H](C[C@H](C[C@H](C[C@H](C[C@H](CCCCC)OC)OC)OC)OC)OC)OC)OC)OC)OC)OC`, the TGI in [1], in [2], in assay [3], in [5], in assay [6] and in assay [7] was above 100 µM throughout.
With `Cc1ccc(/C=C/C(=O)CCN(C)C)cc1`, the TGI in assay [1] is 33.8 µM; in assay [2], 72.4 µM; in assay [3] it was above 100 µM; in assay [4] it was 38.2 µM; in assay [5], above 100 µM; in assay [6] it was 31.6 µM. In assay [7], this molecule had a TGI of 30.2 µM.
Turning to `O=C(/C=C/c1ccc([N+](=O)[O-])cc1)c1ccc(NCc2nc3ccccc3[nH]2)cc1`, the TGI in assay [1] worked out at 28 µM; in assay [2], 6.16 µM; in [3], 18.1 µM; in assay [4] it was 11.8 µM; in [5], 30.1 µM; in [6] it was 6.54 µM. Further, the TGI in assay [7] amounted to 6.19 µM.
On to `O=c1c(-c2ccccc2)c2oc(c1-c1ccccc1)CSCc1cccc(c1)CSC2`, for which the TGI was 87.4 µM in [1]; above 100 µM in assay [2]; above 100 µM in assay [3]; above 100 µM in assay [4]; 70.1 µM in assay [5]; above 100 µM in assay [6]. In assay [7], the TGI is above 100 µM.
As for `COc1nc(NC2OC(COC(C)=O)C(OC(C)=O)C(OC(C)=O)C2OC(C)=O)c2c(OC(C)=O)cc(=O)oc2n1` (stereo not drawn), the TGI in assay [2], in assay [3], in [4], in assay [5], in assay [6] and in assay [7] was above 100 µM each time.
On to `CCc1c(OC(C)=O)c2c(NC3OCC(OC(C)=O)C(OC(C)=O)C3OC(C)=O)nc(SC)nc2oc1=O` (stereo not drawn), for which the TGI in assay [2], in [3], in [4], in [5], in assay [6] and in assay [7] was above 100 µM throughout.
Consider `S=c1sc2c(n1-c1ccccc1)NC=NC2S` (stereo not drawn), for which the TGI in assay [1], in assay [2], in assay [3], in assay [4], in assay [5] and in assay [6] was above 100 µM each time. Also, the TGI in assay [7] was above 100 µM.
Regarding `O=C1CN(c2cccc(Cl)c2)C(=O)CN1CCN1CC(=O)N(c2cccc(Cl)c2)CC1=O`, the TGI in [1], in assay [2], in [8], in assay [9], in assay [3] and in assay [4] was above 100 µM throughout. Also, the TGI in [5] and in assay [7] was above 100 µM throughout.
With `CC(=O)O/N=C(/C)c1ccccc1O`, the TGI in assay [1], in assay [2], in [3], in assay [5], in [6] and in assay [7] was above 100 µM throughout.
Regarding `COc1cc(C2CC(C)(O)Oc3cc4c(cc32)OCO4)cc(OC)c1OC` (stereo not drawn), the TGI in [1] is above 100 µM; in assay [2] it was above 100 µM; in assay [8], 23.6 µM; in assay [9], above 100 µM; in assay [4], above 100 µM; in assay [6], above 100 µM. Besides, in assay [7], the TGI is above 100 µM.
As to `Cc1ccc(Oc2ccc(C)cc2N)cc1`, the TGI in [1], in assay [2], in assay [3], in [4], in assay [5] and in assay [6] was above 100 µM in each case. The molecule further registered a TGI in assay [7] above 100 µM.

(Values after PubChem BioAssay (NCI).)
